{"source": "patent US8476319B2", "about": "“Methods of treating ear infections” (3M Innovative Properties Company, priority 2005, dated 2013)", "key": {"[1]": {"system": "Organ of Corti hair cells", "test": "Ototoxicity testing in chinchillas (trans bullar injection, Organ of Corti surface preparation)", "conditions": "0.1 cc into middle ear, two injections, 17 days", "text": "Initial screening of selected components for ototoxic effect was preformed using chinchillas. The compounds or compounds plus vehicle were placed in proximity to the round window membrane of the chinchilla and the tissues evaluated for ototoxic insult.\nGeneral Test Procedure: Chinchillas were mildly anesthetized using 0.1 cc IM ketamine. The skin overlying the ventral aspect of the left and right bulla were shaved and surgically prepped. An amount (0.1 cubic centimeter (cc)) of the test material was placed in the middle ear near the round window niche using a 1 cc syringe with a 23 guage needle by trans bullar injection. Three days later the procedure was repeated using the same test material in each ear. Fourteen days after the second injection (total survival time=17 days) the animals were sacrificed. The bullae were removed, the cochlea isolated and perfused with fixative through the round window membrane. After standard preparation (fixation and decalcification) the samples were dissected and the Organ of Corti isolated and evaluated for ototoxic insult. The surface preparation analysis of the Organ of Corti is a universally accepted method of evaluating hair cell loss due to ototoxic insult. The chinchilla is the standard test animal used and a 14 day survival time is adequate to screen for gross hair cell disruption due to ototoxic effect. The materials were tested in both a right and left ear but using two different animals.\nThis served as a positive control."}, "[2]": {"test": "Transport through the tympanic membrane, GC of saline recovered from middle ear", "type": "in vivo, chinchilla", "conditions": "for formulation component detected by GC in saline recovered from the middle ear: Example 2 formulation in outer ear next to tympanic membrane, samples at 15, 30, 60 min", "method": "Example 2 formulation was evaluated for transportability across the ear drum (tympanic membrane) and into the middle ear with an animal model test using chinchillas (400 g to 500 g). A cotton plug saturated with Example 2 formulation was placed against the outer ear membrane of a chinchilla. An opening was made into the middle ear through the bulla and 1 mL saline was placed in the middle ear. At 15, 30, and 60 min. the saline was withdrawn and replaced with fresh saline. Tympanometry was completed before and after the test compositions were applied to ensure the tympanic membrane was intact (without perforations). The saline samples were kept at 4° C. until assayed.\nGC Analysis: Six samples of saline recovered from the middle ear of a chinchilla were analyzed by GC. They were recovered from both the left and right ears of the test animal at 15, 30, and 60 min after an antibacterial formulation was placed in the outer ear next to the tympanic membrane. The GC analysis detected the formulation components of GML, FINSOLV NT, and benzoic acid.\nStandard preparation: A single external standard of GML (Medchem—97%) at 1 mg/mL was prepared in CHCl3. Standards of methyl benzoate and FINSOLV NT were also available. Saline (0.9% NaCl) was prepared in the lab.\nSample Extraction: The six samples were contained in 1.5 mL clear plastic micorcentrifuge tubes. The 30- and 60-min samples were clear while the 15-min samples contained a water insoluble residue (there appeared to be so much antimicrobial composition in the sample collected a separate phase was noted by the analyst). The liquid was vortexed and transferred to separate 10 mL graduated clinical centrifuge tubes and the volume recorded. The sample tubes were rinsed once with approximately 0.5 mL saline vortexed and transferred to the centrifuge tube. The microtubes were rinsed a second time with approximately 0.75 mL chloroform which was also transferred to the clinical centrifuge tube. The chloroform dissolved the residue in the 15 min samples. The liquid level in the centrifuge tubes was brought to 1.7 mL by the addition of saline solution. A sample (4.5 mL) of CHCl3 was then added to the centrifuge tubes using a 5-mL graduated glass pipette. The tubes were then sealed with TEFLON screw cap tops and vortexed for 2 min. They were then centrifuged in an IEC clinical centrifuge until 2 clear phases formed (approximately 5 min). Using Pasture pipettes, the lower (organic) phases were quantitatively transferred to a set of preweighed 7-mlL vials. The extracts were treated with diazomethane (DAM) which formed the methyl esters of acids present, in this case methyl benzoate from benzoic acid present. Extracts were placed on a warm heating block and taken to dryness under a stream of nitrogen. Once constant weight was obtained, the samples were re-weighed and the net weight was recorded. Using a graduated pipette enough CHCl3 was added back to the 15 min extracts to achieve a concentration of 1 mg/mL in GML. The 30 and 60 min samples had much less weight so an arbitrary ½ mL of CHCl3 was added. An aliquot of each sample was then transferred to an autosampler vial and analyzed by GC using the conditions below. Gas Chromatography: • Instrument—HP 5890 • Column—15 meter STABILWAX-DA, 0.25 μm film 0.25 mm ID • Carrier—He, 2.07×10^5 N/m^2(30 psi) constant pressure • Injection—2 μL split 1:60, injector temp 250° C. • Liner—Restek SILTEK deactivated liner with SILTEK • deactivated glass wool (catalog number 22406-213.5) • Program—110° C. initial, 7° C./min to 250°, hold 10 minutes • Detector—FID at 250° C.\nThe total recovered GML was determined by direct GC analysis of the fractions. […] As indicated above a standard of methyl benzoate was substituted for benzoic acid. The components have been identified and the FINSOLV TN contributes most of the peak area. […]"}, "[3]": {"conditions": "recovered from middle ear saline 15 minutes after Example 2 formulation placed against tympanic membrane"}, "[4]": {"conditions": "recovered from middle ear saline 30 minutes after Example 2 formulation placed against tympanic membrane"}, "[5]": {"conditions": "total of 15, 30 and 60 minute samples, Example 2 formulation"}}}
{"molecule": "CCCCC(CC)COC(=O)CC(C(=O)OCC(CC)CCCC)S(=O)(=O)[O-].[Na+]", "note": "(stereo not drawn) [GEMTEX (DOSS), Dioctylsulfosuccinate, sodium salt]", "values": [{"measurement": "Ototoxicity Result", "setting": "[1]; 1% / 1.0% in water", "value": "Toxic (toxic (rating 2-4))"}]}
{"molecule": "CCCCCCCCCCCC(=O)OCC(O)CO", "note": "(stereo not drawn) [GML, Glycerol monolaurate]", "values": [{"measurement": "Ototoxicity Result", "setting": "[1]; 0.5% in water", "value": "No toxicity (no toxicity (rating 1))"}, {"measurement": "Ototoxicity Result", "setting": "[1]; 1% / 1.0% in water", "value": "No toxicity (no toxicity (rating 1))"}, {"measurement": "Ototoxicity Result", "setting": "[1]; 1% in IPM", "value": "Toxic (toxic (rating 2-4))"}, {"measurement": "formulation component detected by GC in saline recovered from the middle ear", "setting": "[2]", "value": "detected"}, {"measurement": "Left ear GML", "setting": "[2]; [3]", "value": 10.3, "unit": "mg"}, {"measurement": "Right ear GML", "setting": "[2]; [3]", "value": 2.35, "unit": "mg"}, {"measurement": "Left ear GML", "setting": "[2]; [4]", "value": 0.03, "unit": "mg"}, {"measurement": "Right ear GML", "setting": "[2]; [4]", "value": 0.98, "unit": "mg"}, {"measurement": "Left ear GML (mg), Total", "setting": "[2]; [5]", "value": 10.33, "unit": "mg"}, {"measurement": "Right ear GML (mg), Total", "setting": "[2]; [5]", "value": 3.33, "unit": "mg"}]}
{"molecule": "CCCCCCCCCCCCCC(=O)OC(C)C", "note": "[IPM, Isopropyl myristate]", "values": [{"measurement": "Ototoxicity Result", "setting": "[1]; 100%", "value": "Toxic (toxic (rating 2-4))"}]}
{"molecule": "Propylene glycol monocaprylate [PG monocaprylate]", "values": [{"measurement": "Ototoxicity Result", "setting": "[1]; 0.25% in water", "value": "No toxicity (no toxicity (rating 1))"}, {"measurement": "Ototoxicity Result", "setting": "[1]; 1% / 1.0% in water", "value": "No toxicity (no toxicity (rating 1))"}]}
{"molecule": "O=C(O)c1ccccc1", "note": "[benzoic acid, Benzoic acid]", "values": [{"measurement": "formulation component detected by GC in saline recovered from the middle ear", "setting": "[2]", "value": "detected"}]}
